Source: ChEMBL document CHEMBL4680140, “Minor chemical modifications of the aminosteroid derivative RM-581 lead to major impact on its anticancer activity, metabolic stability and aqueous solubility” (Eur J Med Chem, 2020)
≈ marks a conversion by molar mass, not a printed value. Calls of active or inactive are those of the source. No cut-off for these calls is given here.

What was measured:
LNCaP = assay: Antiproliferative activity against human LNCaP cells assessed as reduction in cell viability after 72 hrs by MTS assay; format: functional, cell-based
PC-3 = assay: Antiproliferative activity against human PC-3 cells assessed as reduction in cell viability after 72 hrs by MTS assay; format: functional, cell-based; details: PC-3, 72 h
PANC-1 [1] = assay: Antiproliferative activity against human PANC-1 cells assessed as reduction in cell viability at 1 to 5 uM after 72 hrs by MTS assay; format: functional, cell-based; details: dose 1-5 µM
PANC-1 [2] = assay: Antiproliferative activity against human PANC-1 cells assessed as reduction in cell viability after 72 hrs by MTS assay; format: functional, cell-based; details: PANC-1, 72 h
T47D [3] = assay: Antiproliferative activity against human T47D cells assessed as reduction in cell viability after 72 hrs by MTS assay; format: functional, cell-based
[4] = Stability in human liver s9 fraction assessed as parent compound remaining at 10 uM after 1 hr by LC-MS analysis; format: ADME, subcellular; details: read-out: Stabilty
T47D [5] = assay: Antiproliferative activity against human T47D cells assessed as reduction in cell viability at 1 to 5 uM after 72 hrs by MTS assay; format: functional, cell-based; details: dose 1-5 µM
OVCAR-3 [6] = assay: Antiproliferative activity against human OVCAR-3 cells assessed as reduction in cell viability after 72 hrs by MTS assay; format: functional, cell-based; details: OVCAR-3, 72 h
Caov-3 cell line = assay: Antiproliferative activity against human Caov-3 cells assessed as reduction in cell viability at 1 to 5 uM after 72 hrs by MTS assay; format: functional, cell-based; details: dose 1-5 µM
OVCAR-3 [7] = assay: Antiproliferative activity against human OVCAR-3 cells assessed as reduction in cell viability at 1 to 5 uM after 72 hrs by MTS assay; format: functional, cell-based; details: dose 1-5 µM
SK-OV-3 = assay: Antiproliferative activity against human SK-OV-3 cells assessed as reduction in cell viability at 1 to 5 uM after 72 hrs by MTS assay; format: functional, cell-based; details: dose 1-5 µM
LAPC4 [8] = assay: Antiproliferative activity against human LAPC4 cells assessed as reduction in cell viability at 1 to 5 uM after 72 hrs by MTS assay; format: functional, cell-based; details: dose 1-5 µM
[9] = Solubility of compound in PBS at pH 7.4 at 300 uM after 24 hrs by HPLC-UV analysis; format: physicochemical
LAPC4 [10] = assay: Antiproliferative activity against human LAPC4 cells assessed as reduction in cell viability after 72 hrs by MTS assay; format: functional, cell-based; details: LAPC4, 72 h
MCF7 [11] = assay: Antiproliferative activity against human MCF7 cells assessed as reduction in cell viability at 1 to 5 uM after 72 hrs by MTS assay; format: functional, cell-based; details: dose 1-5 µM
Hs 766 = assay: Antiproliferative activity against human Hs 766 cells assessed as reduction in cell viability at 1 to 5 uM after 72 hrs by MTS assay; format: functional, cell-based; details: dose 1-5 µM
MCF7 [12] = assay: Antiproliferative activity against human MCF7 cells assessed as reduction in cell viability after 72 hrs by MTS assay; format: functional, cell-based; details: MCF7, 72 h
BXPC-3 = assay: Antiproliferative activity against human BXPC-3 cells assessed as reduction in cell viability at 1 to 5 uM after 72 hrs by MTS assay; format: functional, cell-based; details: dose 1-5 µM
[13] = Solubility of compound in PBS at pH 7.4 at pH 7.4 HPLC analysis; format: physicochemical

Row | SMILES | IC50 (LNCaP) [nM] | IC50 (PC-3) [nM] | Activity (PANC-1 [1]) | IC50 (PANC-1 [2]) [nM] | IC50 (T47D [3]) [nM] | remaining at 1 h, 10 µM [4] [%] | Activity (T47D [5]) | IC50 (OVCAR-3 [6]) [nM] | Activity (Caov-3 cell line) | Activity (OVCAR-3 [7]) | Activity (SK-OV-3) | Activity (LAPC4 [8]) | solubility at 24 h, 300 µM [9] [µg/mL] | IC50 (LAPC4 [10]) [nM] | Activity (MCF7 [11]) | Activity (Hs 766) | IC50 (MCF7 [12]) [nM] | Activity (BXPC-3) | solubility [13] [µg/mL]
1 | C#C[C@]1(O)CC[C@H]2[C@@H]3CCc4cc(OC)c(N5CCN(C(=O)[C@@H]6CCCN6C(=O)c6ccc7ccccc7n6)CC5)cc4[C@H]3CC[C@@]21C | 1200 | 1600 | Active | 3900 | 500 | 35 | Active | 5000 | Active | Active | Active | Active | 2 (≈ 3.09 µM) | 600 | Active | Active | 2600 | Active | 
2 | C#C[C@]1(O)CC[C@H]2[C@@H]3CCc4cc(OC)c(C(=O)N5CCN(C(=O)[C@@H]6CCCN6C(=O)c6ccc7ccccc7n6)CC5)cc4[C@H]3CC[C@@]21C | 800 | 1700 | Active | 3500 | 300 | 52 | Active | 5200 | Active | Active | Active | Active |  | 500 | Active | Active | 2200 | Active | 
3 | Nc1ccn([C@@H]2O[C@H](CO)[C@@H](O)C2(F)F)c(=O)n1 |  |  |  |  |  |  | Active |  |  |  |  |  |  |  |  |  |  |  | 
4 | CC(=O)O[C@H]1C(=O)[C@@]2(C)[C@H]([C@H](OC(=O)c3ccccc3)[C@]3(O)C[C@H](OC(=O)[C@H](O)[C@@H](NC(=O)c4ccccc4)c4ccccc4)C(C)=C1C3(C)C)[C@]1(OC(C)=O)CO[C@@H]1C[C@@H]2O |  |  |  |  |  |  | Active |  |  |  |  |  |  |  |  |  |  |  | 
5 | CCc1c2c(nc3ccc(OC(=O)N4CCC(N5CCCCC5)CC4)cc13)-c1cc3c(c(=O)n1C2)COC(=O)[C@]3(O)CC |  |  |  |  |  |  | Active |  |  |  |  |  |  |  |  |  |  |  | 
6 | C#Cc1cc2c(cc1N1CCN(C(=O)[C@@H]3CCCN3C(=O)c3ccc4ccccc4n3)CC1)[C@H]1CC[C@@]3(C)[C@@H](CC[C@@]3(O)C#C)[C@@H]1CC2 |  |  |  |  |  | 52 |  |  |  |  |  |  |  |  |  |  |  |  | 
7 | C#CC1(O)CC[C@H]2[C@@H]3CCc4cc(OP(=O)(O)O)c(N5CCN(C(=O)[C@@H]6CCCN6C(=O)c6ccc7ccccc7n6)CC5)cc4[C@H]3CC[C@@]21C (single isomer, unassigned) | 600 | 1300 | Active | 2600 | 300 | 52 | Active | 4600 | Active | Active | Active | Active | > 720 | 300 | Active | Active | 1500 | Active | 
8 | C#CC1(O)CC[C@H]2[C@@H]3CCc4cc(C(C)O)c(N5CCN(C(=O)[C@@H]6CCCN6C(=O)c6ccc7ccccc7n6)CC5)cc4[C@H]3CC[C@@]21C (single isomer, unassigned) |  |  | inactive |  |  | 35 | inactive |  | inactive | inactive | inactive | inactive |  |  | inactive | inactive |  | inactive | 
9 | C#CC1(O)CC[C@H]2[C@@H]3CCc4cc(OC(=O)N(CC)CC)c(N5CCN(C(=O)[C@@H]6CCCN6C(=O)c6ccc7ccccc7n6)CC5)cc4[C@H]3CC[C@@]21C (single isomer, unassigned) |  |  | inactive |  |  | 52 | inactive |  | inactive | inactive | inactive | inactive |  |  | inactive | inactive |  | inactive | 
10 | C#CC1(O)CC[C@H]2[C@@H]3CCc4cc(OC(=O)N(C)C)c(N5CCN(C(=O)[C@@H]6CCCN6C(=O)c6ccc7ccccc7n6)CC5)cc4[C@H]3CC[C@@]21C (single isomer, unassigned) |  |  | inactive |  |  | 52 | inactive |  | inactive | inactive | inactive | inactive |  |  | inactive | inactive |  | inactive | 
11 | C#CC1(O)CC[C@H]2[C@@H]3CCc4cc(OC(C)=O)c(N5CCN(C(=O)[C@@H]6CCCN6C(=O)c6ccc7ccccc7n6)CC5)cc4[C@H]3CC[C@@]21C (single isomer, unassigned) | 800 | 1400 | Active | 2800 | 400 | 76 | Active | 3900 | Active | Active | Active | Active |  | 500 | Active | Active | 1400 | Active | 
12 | C#C[C@]1(O)CC[C@H]2[C@@H]3CC[C@H]4C[C@H](O)[C@@H](N5CCN(C(=O)[C@@H]6CCCN6C(=O)c6ccc7ccccc7n6)CC5)C[C@]4(C)[C@H]3CC[C@@]21C |  |  |  |  |  |  |  |  |  |  |  |  | 9 (≈ 13.8 µM) |  |  |  |  |  | 
13 | C#CC1(O)CC[C@H]2[C@@H]3CCc4ccc(N5CCN(C(=O)[C@@H]6CCCN6C(=O)c6ccc7ccccc7n6)CC5)cc4[C@H]3CC[C@@]21C (single isomer, unassigned) |  |  | inactive |  |  | 35 | inactive |  | inactive | inactive | inactive | inactive |  |  | inactive | inactive |  | inactive | 
14 | C#C[C@]1(O)CC[C@H]2[C@@H]3CCc4cc(C(C)=O)c(N5CCN(C(=O)[C@@H]6CCCN6C(=O)c6ccc7ccccc7n6)CC5)cc4[C@H]3CC[C@@]21C |  |  | inactive |  |  | 52 | inactive |  | inactive | inactive | inactive | inactive |  |  | inactive | inactive |  | inactive | 
15 | O=c1[nH]cc(F)c(=O)[nH]1 |  |  |  |  |  |  | Active |  |  |  |  |  |  |  |  |  |  |  | 
16 | C#CC1(O)CC[C@H]2[C@@H]3CCc4cc(OS(N)(=O)=O)c(N5CCN(C(=O)[C@@H]6CCCN6C(=O)c6ccc7ccccc7n6)CC5)cc4[C@H]3CC[C@@]21C (single isomer, unassigned) | 900 | 1600 | Active | 3000 | 200 | 35 | Active | 3100 | Active | Active | Active | Active |  | 300 | Active | Active | 1200 | Active | 
17 | C#CC1(O)CC[C@H]2[C@@H]3CCc4cc(O)c(N5CCN(C(=O)[C@@H]6CCCN6C(=O)c6ccc7ccccc7n6)CC5)cc4[C@H]3CC[C@@]21C (single isomer, unassigned) | 1100 | 1400 | Active | 3100 | 500 | 35 | Active | 4400 | Active | Active | Active | Active |  | 400 | Active | Active | 1400 | Active | 
18 | C#C[C@]1(O)CC[C@H]2[C@@H]3CCc4cc(OC)c(CN5CCN(C(=O)[C@@H]6CCCN6C(=O)c6ccc7ccccc7n6)CC5)cc4[C@H]3CC[C@@]21C | 1300 | 1700 | Active | 2600 | 400 | 76 | Active | 5000 | Active | Active | Active | Active |  | 700 | Active | Active | 2300 | Active | 
19 | CCCSc1ccc2nc(NC(=O)OC)[nH]c2c1 [ALBENDAZOLE] |  |  |  |  |  |  |  |  |  |  |  |  | 0.52 (≈ 1.96 µM) |  |  |  |  |  | 0.74 (≈ 2.79 µM)
